Values joined by “and” are separate entries in the source; they are usually repeats but may differ in a detail not shown here. Equal values may be shown once. Read-outs that look alike come from different tables or passages of the source.
Tests used:
P-glycoprotein (P-gp) = P-glycoprotein (P-gp) (Homo sapiens, UniProt P08183); experiment: Calcein-AM transport inhibition in MDCK-MDR1 cells overexpressing P-gp; conditions: for IC50: calcein-AM, mean (SD), at least two independent experiments in triplicate; for P-gp/MRP1 selectivity (toward P-gp): ratio of MRP1 and P-gp inhibition potency
Description: (§3) The P-gp inhibitory potency of eight DHPIQs was evaluated by measuring the transport inhibition of calcein-AM, a profluorescent P-gp substrate, in the MDCK-MDR1 cell line overexpressing P-gp. Moreover, to evaluate the MRP1 inhibitor activity, the same compounds were screened in MDCK-MRP1 cells overexpressing MRP1.
(§4) According to previously described assays [9], MDCK-MDR1 and MDCK-MRP1 cell lines (50,000 cells per well) were seeded into a black CulturePlate 96-well plate with 100 μL medium and allowed to become confluent overnight. […] Saline buffer (100 μL) was added to each well, and the plate was read by a PerkinElmer Victor3 spectrofluorimeter at excitation and emission wavelengths of 485 nm and 535 nm, respectively. In these experimental conditions, calcein cell accumulation in the absence and in the presence of the test compound was evaluated, and the fluorescence basal level was estimated by untreated cells. In the treated wells, the increase of fluorescence with respect to basal level was measured. IC50 values were determined by interpolating the curve of fluorescence increase percentage versus log [conc.].

[1] = tested on: HCT116 (colon cancer) cells; experiment: MTT antiproliferative (cytotoxicity) assay, HCT116 cells; assay type: cell-based, Human; conditions: Homo sapiens, HCT-116, 72 h, mean (SD), triplicate, n.a. = not active at 100 μM, >100 = less than 60% inhibition at 100 μM
Description: (§1) The newly synthesized 1-Ph-DHPIQs, along with the previously reported derivatives 4a, 4c, 6a and 6c, with camptothecin and doxorubicin as positive controls, were tested at the maximum concentration of 100 μM for their antiproliferative activity, using an MTT assay on RD, HCT116, HeLa and A549 cancer cell lines. Compounds showing more than 50% inhibition were tested at lower scalar concentrations, and IC50 values were calculated by interpolation of the dose-response curves (Table 1). […]
(§2) The antiproliferative activity of the newly synthesized compounds, along with some previously reported analogs, and camptothecin and doxorubicin as positive controls was determined by the MTT (3-(4,5-dimethylthiazol-2-yl)-2,5-diphenyltetrazolium bromide) assay. The cells were seeded at a concentration of 1 × 10 ^4 cells/200 μL in a 96-well plate and cultured at 37 °C in a humidified atmosphere with 5% CO2. After 24 h of incubation, scalar concentrations of each test compound (100 to 1.56 μmol·L^−1) were added to the cancer cell culture and the cells were then cultured under the same conditions for 72 hr. Each concentration of the test compound was assayed in triplicate. […] Wells with the 0.1% v/v DMSO were used as controls. After incubation, 20 μL of MTT (5 mg·mL^−1) was added to each well and the plates were incubated for a further 2 h. Next, media were removed from the plates, and 100 μL of DMSO was added to each well to dissolve the formed formazan crystals. Using a flatbed analyzer (Victor^3, PerkinElmer, Waltham, MA, USA), the optical density was determined at 530 nm, minus the measured background absorbance at 620 nm. The concentration value, which causes 50% inhibition of cell population growth (IC50), was determined from the dose-dependent curves using the OriginPro 9.0 software.

[2] = tested on: A549 (lung adenocarcinoma) cells; experiment: MTT antiproliferative (cytotoxicity) assay, A549 cells; assay type: cell-based, Human; conditions: Homo sapiens, A549, 72 h, mean (SD), triplicate, n.a. = not active at 100 μM, >100 = less than 60% inhibition at 100 μM
Description: The antiproliferative activity of the newly synthesized compounds, along with some previously reported analogs, and camptothecin and doxorubicin as positive controls was determined by the MTT (3-(4,5-dimethylthiazol-2-yl)-2,5-diphenyltetrazolium bromide) assay. […] Each concentration of the test compound was assayed in triplicate. […] Wells with the 0.1% v/v DMSO were used as controls. After incubation, 20 μL of MTT (5 mg·mL^−1) was added to each well and the plates were incubated for a further 2 h. Next, media were removed from the plates, and 100 μL of DMSO was added to each well to dissolve the formed formazan crystals. Using a flatbed analyzer (Victor^3, PerkinElmer, Waltham, MA, USA), the optical density was determined at 530 nm, minus the measured background absorbance at 620 nm.

[3] = tested on: RD (rhabdomyosarcoma) cells; experiment: MTT antiproliferative (cytotoxicity) assay, RD cells; assay type: cell-based, Human; conditions: Homo sapiens, Rhabdomyosarcoma cell, 72 h, mean (SD), triplicate, n.a. = not active at 100 μM, >100 = less than 60% inhibition at 100 μM
Description: as §1, §2

[4] = tested on: HeLa (adenocarcinoma of the cervix uterus) cells; experiment: MTT antiproliferative (cytotoxicity) assay, HeLa cells; assay type: cell-based, Human; conditions: Homo sapiens, HeLa, 72 h, mean (SD), triplicate, n.a. = not active at 100 μM, >100 = less than 60% inhibition at 100 μM
Description: as §1, §2

[5] = Hydrolytic stability monitored by RP-HPLC; assay type: physicochemical; conditions: 0.15 M KCl; for Hydrolytic stability at pH 2: 0.01 M HClaq, pH 2, 25 °C; for Hydrolytic stability at pH 7.4: 50 mM PBS, pH 7.4, 25 °C
Source text: In particular, the transformation of the DHPIQ-2-aldehyde via Mannich reaction (8b,c) opens the road to future developments of new water-soluble antiproliferative DHPIQ derivatives endowed with the ability to inhibit P-gp and reverse MDR.

[6] = target: T1, human serum albumin (HSA) (Homo sapiens, UniProt P02768); experiment: Binding affinity to immobilized HSA by surface plasmon resonance (SPR)
Description: (§5) By plotting the response at equilibrium, the dissociation constant (KD) value was determined for each test compound.
(§6) Fatty acid-free HSA (A3782 from Merck, KGaA Sigma-Aldrich, Darmstadt, Germany) was applied to functionalize the surface of a COOH V sensor chip (Pall FortèBio, Fremont Boulevard, CA, USA), by using amine coupling (EDC/NHS). HSA aqueous stock solution was diluted at the final concentration of 50 μg·mL^−1 in 10 mM sodium acetate buffer (pH 5.0), and immobilization in peripheral flow cells 1 and 3 (unmodified dextran surface in middle flow cell 2 used as a reference) at a final apparent level of about 5000 RU was achieved by applying the following protocol: injection of EDC/NHS (freshly mixed 0.4 M EDC and 0.1 M NHS) 1:1 v/v at a flow of 25 μL·min^−1 for 4 min; injection of HSA solution at a flow of 25 μL·min^−1 for 8 min; capping on unreacted activated carboxyl groups by injection of 1 M ethanolamine solution (pH 9) at a flow of 25 μL·min^−1 for 8 min. The functionalized surface was then treated with repeated injection of 4 M NaCl, as a regenerating reagent, and conditioned overnight prior to use with pH 7.4 PBS (10 mM NaH2PO4 and 150 mM NaCl) as a running buffer. Each cycle (without the need of regeneration) for binding assay to HSA was carried out in PBS/4% v/v DMSO and consisted of a run buffer injection (60 s), injection of analyte single concentration for 120 s (ranging from 1 to 200 μM) at a flow 20 μL·min^−1, and a dissociation phase for 150 s (flow 20 μL·min^−1). Each measurement was performed at least in triplicate and analyzed by using QDAT software, vers 2.2.0.7 (non-linear regression analysis of 1:1 stoichiometric reversible binding model), and double referencing.

[7] = target: multidrug-resistance-associated protein-1 (MRP1) (Homo sapiens, UniProt P33527); experiment: Calcein-AM transport inhibition in MDCK-MRP1 cells overexpressing MRP1
Description: as §3, §4

[8] = Lipophilicity by RP-HPLC (polycratic capacity factor); assay type: physicochemical; conditions: capacity factor extrapolated to 100% aqueous mobile phase, aqueous component pH 4.7
Description: To quantitate the effect of hydrophobicity on the biological activity of the examined compounds, a relative lipophilicity scale was determined by RP-HPLC [20]. The polycratic capacity factor (log k′w) for each compound in Table 2 was experimentally determined (details in the experimental section) and compared with 1-octanol–water partition coefficient calculated (Clog P) with ACDLabs software (release 10.0; Advanced Chemistry Development, Inc., Toronto, ON, Canada). Log k′w values are quite well correlated with Clog Ps for the whole series (r^2 = 0.791). However, omitting from the regression the two Mannich bases 8b and 8c, which, due to their basicity (pKas about 6.9, estimated by ACDLabs software), should be predominantly in the protonated forms at pH 4.7 (i.e., the pH of the aqueous component of the mobile phase in RP-HPLC), the correlation slightly improves (r^2 = 0.859), providing a linear equation with a slope equal to +0.8 and an intercept of about −0.1.
The lipophilicity parameters were determined by an RP-HPLC technique. Methanol solution of DHPIQ derivatives (1 mg/mL) were analyzed by an Agilent 1260 infinite HPLC system (Agilent Technologies, Milan, Italy) equipped with a diode array detector (DAD), and a Phenomenex, Kinetex 5 μ, C18, 100 Å (150 × 4.6 mm), and eluted with different percentage of mobile phase composition (0.05 increments of MeOH volume fractions in 20 mM ammonium formate buffer at pH 4.7 or water 0.1% v/v TFA, with φ ranging between 0.85 and 0.30). The chromatographic measurements were carried out at 25 ± 1 °C at a flow rate of 1 mL·min^−1 and at 265, 290, 320 nm wavelengths. The log of capacity factors (log k′ = log (tR − t0)/t0) of each compound at different mobile phase compositions was calculated; tR represents the retention time of the solute and t0 is the column dead time, measured as the elution time of a KNO3 solution in MeOH. For each compound, the log k′ values increased linearly with decreasing MeOH volume fraction. The logarithms of the capacity factor extrapolated to 100% aqueous mobile phase (log k′w) were calculated from the linear regressions on at least five data points (r^2 > 0.9984).

[9] = Kinetic solubility in PBS by RP-HPLC; assay type: physicochemical; conditions: phosphate buffered saline, 25 °C, kinetic from dmso stock
Description: Sample solution at 200 μM in PBS (50 mM, pH 7.4, KCl 0.15 M) from a 10 mM stock solution in DMSO was incubated at room temperature (25 ± 1 °C) for 2 h, following shaking of the suspension on an orbital shaker at 250 rpm, and then separated by […]. Immediately after the filtration step, 100 µL of filtrate was transferred into 100 µL of 1:1 (v/v) mixture of DMSO and PBS (50 mM, pH 7.4, KCl 0.15 M), to avoid precipitation from the saturated solution and analyzed by HPLC. The peak area was plotted against a calibration curve of the tested compound in MeOH [21]. Analytical conditions were as follows. Mobile Phase: MeOH/ammonium formate 20 mM pH 4.7 (70:30, 75:25); MeOH 0.1% TFA/H2O 0.1% TFA (70:30, 60:40); stationary phase: Phenomenex, Kinetex 5 μ, C18, 100 Å (150 × 4.6 mm); flux: 1 mL/min; injection: 10 μL, 265, 290, 320 nm wavelength. HPLC analyses were performed on an Agilent HPLC 1260 Infinity Series Integrated System (Agilent Technologies, Milan, Italy).

[10] = target: T1, human serum albumin (HSA); conditions: 10 μM, pH 7.4
Description: as §5, §6

[11] = aqueous buffer, PBS (50 mM, pH 7.4, 0.15 M KCl) at 25 ± 1 °C, read-out: S (solubility)

multidrug-resistance-associated protein-1 (MRP1), sequence (P33527 whole entry): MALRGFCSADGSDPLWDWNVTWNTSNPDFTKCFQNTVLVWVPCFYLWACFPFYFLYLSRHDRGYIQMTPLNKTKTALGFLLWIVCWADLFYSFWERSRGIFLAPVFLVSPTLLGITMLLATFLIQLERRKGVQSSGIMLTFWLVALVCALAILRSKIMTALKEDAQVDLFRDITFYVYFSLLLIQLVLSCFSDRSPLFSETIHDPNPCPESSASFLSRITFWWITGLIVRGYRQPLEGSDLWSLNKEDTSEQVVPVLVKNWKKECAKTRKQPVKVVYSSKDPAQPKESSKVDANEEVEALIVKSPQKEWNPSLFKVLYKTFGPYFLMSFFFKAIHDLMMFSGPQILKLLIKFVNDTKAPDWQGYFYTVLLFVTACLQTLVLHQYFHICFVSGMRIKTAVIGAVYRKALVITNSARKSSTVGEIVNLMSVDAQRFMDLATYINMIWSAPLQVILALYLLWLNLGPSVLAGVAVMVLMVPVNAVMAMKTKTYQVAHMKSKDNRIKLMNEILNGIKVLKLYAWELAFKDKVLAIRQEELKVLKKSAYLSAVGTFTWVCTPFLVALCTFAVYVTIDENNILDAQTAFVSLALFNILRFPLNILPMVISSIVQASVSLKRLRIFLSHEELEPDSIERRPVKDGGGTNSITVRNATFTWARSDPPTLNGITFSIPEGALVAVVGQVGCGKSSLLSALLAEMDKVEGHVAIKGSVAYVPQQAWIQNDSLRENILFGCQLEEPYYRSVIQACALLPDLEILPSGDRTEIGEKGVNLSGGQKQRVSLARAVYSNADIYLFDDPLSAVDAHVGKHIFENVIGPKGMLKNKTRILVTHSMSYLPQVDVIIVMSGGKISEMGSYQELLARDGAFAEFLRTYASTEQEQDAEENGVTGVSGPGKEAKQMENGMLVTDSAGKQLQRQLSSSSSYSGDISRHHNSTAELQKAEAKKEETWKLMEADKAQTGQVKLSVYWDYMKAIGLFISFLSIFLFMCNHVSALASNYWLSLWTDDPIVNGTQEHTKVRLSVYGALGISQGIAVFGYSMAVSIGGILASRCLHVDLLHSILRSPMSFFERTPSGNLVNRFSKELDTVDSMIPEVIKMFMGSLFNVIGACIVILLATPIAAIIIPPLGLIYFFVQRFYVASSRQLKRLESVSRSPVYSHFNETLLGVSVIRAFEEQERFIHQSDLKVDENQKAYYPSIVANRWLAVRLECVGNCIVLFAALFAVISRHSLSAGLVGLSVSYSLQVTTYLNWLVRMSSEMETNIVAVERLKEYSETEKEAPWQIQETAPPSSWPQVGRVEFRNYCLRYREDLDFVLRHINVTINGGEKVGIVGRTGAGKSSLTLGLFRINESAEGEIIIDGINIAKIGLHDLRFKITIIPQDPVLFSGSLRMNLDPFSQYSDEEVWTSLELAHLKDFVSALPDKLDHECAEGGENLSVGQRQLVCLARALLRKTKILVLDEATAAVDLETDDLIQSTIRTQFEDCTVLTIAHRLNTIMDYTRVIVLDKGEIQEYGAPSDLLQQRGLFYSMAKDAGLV
P-glycoprotein (P-gp), sequence (P08183 whole entry): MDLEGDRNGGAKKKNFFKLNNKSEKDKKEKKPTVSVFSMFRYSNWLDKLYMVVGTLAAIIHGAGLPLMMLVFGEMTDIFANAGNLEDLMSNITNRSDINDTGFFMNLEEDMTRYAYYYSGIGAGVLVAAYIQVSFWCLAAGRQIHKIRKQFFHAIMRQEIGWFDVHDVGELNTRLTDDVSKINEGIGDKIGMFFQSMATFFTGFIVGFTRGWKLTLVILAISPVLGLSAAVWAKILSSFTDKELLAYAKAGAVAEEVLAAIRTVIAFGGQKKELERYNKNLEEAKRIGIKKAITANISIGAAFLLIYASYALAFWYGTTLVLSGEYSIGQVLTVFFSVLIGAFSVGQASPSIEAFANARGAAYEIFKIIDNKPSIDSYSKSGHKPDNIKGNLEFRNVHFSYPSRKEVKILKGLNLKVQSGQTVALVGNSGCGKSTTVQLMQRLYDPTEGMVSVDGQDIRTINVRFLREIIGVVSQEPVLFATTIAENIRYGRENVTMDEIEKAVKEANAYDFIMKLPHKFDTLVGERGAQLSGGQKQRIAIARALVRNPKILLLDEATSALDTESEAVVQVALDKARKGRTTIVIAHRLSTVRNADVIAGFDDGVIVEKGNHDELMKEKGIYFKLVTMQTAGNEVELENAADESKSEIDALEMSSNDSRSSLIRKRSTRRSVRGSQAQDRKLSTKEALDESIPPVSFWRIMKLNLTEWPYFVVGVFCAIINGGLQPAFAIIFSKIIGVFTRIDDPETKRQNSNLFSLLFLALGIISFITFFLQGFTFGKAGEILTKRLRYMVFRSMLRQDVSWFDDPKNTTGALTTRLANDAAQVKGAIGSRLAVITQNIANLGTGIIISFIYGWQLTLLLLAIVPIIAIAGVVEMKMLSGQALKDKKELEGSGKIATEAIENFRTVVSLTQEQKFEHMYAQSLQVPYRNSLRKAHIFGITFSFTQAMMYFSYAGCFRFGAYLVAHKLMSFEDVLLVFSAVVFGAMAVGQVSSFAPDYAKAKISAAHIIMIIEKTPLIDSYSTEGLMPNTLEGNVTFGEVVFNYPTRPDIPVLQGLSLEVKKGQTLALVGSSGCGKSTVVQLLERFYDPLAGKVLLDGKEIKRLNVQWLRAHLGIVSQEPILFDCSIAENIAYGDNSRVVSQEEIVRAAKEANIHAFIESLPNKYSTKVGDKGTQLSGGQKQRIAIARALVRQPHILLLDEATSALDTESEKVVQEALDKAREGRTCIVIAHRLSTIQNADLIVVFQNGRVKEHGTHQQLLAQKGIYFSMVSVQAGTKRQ
T1 sequence (P02768 25-609): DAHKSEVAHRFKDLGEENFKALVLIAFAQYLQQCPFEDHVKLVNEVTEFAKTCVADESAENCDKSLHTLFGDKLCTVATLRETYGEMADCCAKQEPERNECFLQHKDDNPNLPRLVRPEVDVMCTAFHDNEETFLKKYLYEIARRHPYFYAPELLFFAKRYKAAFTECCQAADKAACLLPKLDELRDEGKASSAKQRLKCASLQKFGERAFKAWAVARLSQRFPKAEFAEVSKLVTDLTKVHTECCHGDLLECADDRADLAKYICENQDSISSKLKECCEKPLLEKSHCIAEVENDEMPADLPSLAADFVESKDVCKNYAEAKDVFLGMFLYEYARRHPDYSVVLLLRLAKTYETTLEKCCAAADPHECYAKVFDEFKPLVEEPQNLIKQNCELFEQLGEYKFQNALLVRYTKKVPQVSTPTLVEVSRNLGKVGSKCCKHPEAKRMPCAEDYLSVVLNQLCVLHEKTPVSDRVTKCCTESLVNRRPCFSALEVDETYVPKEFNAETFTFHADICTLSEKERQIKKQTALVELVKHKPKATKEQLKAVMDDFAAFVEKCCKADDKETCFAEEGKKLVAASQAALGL

IC50 (P-glycoprotein (P-gp); read-out: P-gp, IC50, MDCK-MDR1 cells)	Hydrolytic stability at pH 2 [5]	Hydrolytic stability at pH 7.4 [5]	Kd [6]	IC50 (P-glycoprotein (P-gp); P-gp, IC50, MDCK-MDR1 cells)	IC50 [7]	Log k′w [8]	solubility at 2 h [9, 11]	P-gp/MRP1 selectivity (toward P-gp) (P-glycoprotein (P-gp))	melting point	Predicted fraction bound to HSA [10]	solubility at 2 h ([9]; pH 7.4, aqueous buffer, ‘practically insoluble’ threshold of US and European Pharmacopoeia, read-out: Solubility category in buffered water solution at neutral pH)	SMILES	IC50 [1]	IC50 [2]	IC50 [3]	IC50 [4]
1200 nM	–	–	–	–	–	–	–	–	–	–	–	COc1cc2c(cc1OC)CN(CCC=C1CCCc3c(OC)cccc31)CC2 [MC18, reference compound]	–	–	–	–
–	–	–	–	–	–	–	–	–	–	–	–	CC[C@@]1(O)C(=O)OCc2c1cc1n(c2=O)Cc2cc3ccccc3nc2-1 [Camptothecin, reference compound]	12.3 µM	3.32 µM	16 µM	0.33 µM
–	stable over 4 h	stable over 4 h	12.1 µM	< 500 nM and 320 nM	3.23 µM	5.49	41.7 µM	–	–	–	–	CCOC(=O)c1cn2c(c1-c1ccc(OCC)c(OCC)c1)-c1cc(OCC)c(OCC)cc1CC2 [Compound 7c, Ethyl 1-(3,4-Diethoxyphenyl)-8,9-diethoxy-5,6-dihydro pyrrolo[2,1-a]isoquinoline-2-carboxylate]	–	–	–	–
–	–	–	5.2 µM	< 500 nM and 350 nM	> 100 µM	–	14.6 µM	more than two orders of magnitude	–	–	–	CCOc1ccc(-c2c(C(=O)O)cn3c2-c2cc(OCC)c(OCC)cc2CC3)cc1OCC [Compound 5c, 1-(3,4-Diethoxyphenyl)-8,9-diethoxy-5,6-dihydropyrrolo[2,1-a]isoquinoline-2-carboxylic acid]	–	–	–	–
–	–	–	4.6 µM	5890 nM	16.6 µM	4.42	1.42 µM	–	–	–	–	COc1cc2c(cc1OC)-c1c(-c3ccc(Cl)cc3)c(C#N)cn1CC2 [Compound 6a]	> 100 µM	> 100 µM	> 100 µM	> 100 µM
–	–	–	–	–	–	–	–	–	271 to 273 °C	–	–	CCOc1ccc(-c2c(C#N)c(-c3ccccc3)n3c2-c2cc(OCC)c(OCC)cc2CC3)cc1OCC [Compound 6e, 1-(3,4-Diethoxyphenyl)-8,9-diethoxy-3-phenyl-5,6-dihydropyrrolo [2,1-a]isoquinoline-2-carbonitrile]	–	–	> 100 µM	–
–	stable over 4 h	stable over 4 h	19.3 µM	< 500 nM and 360 nM	1.8 µM	3.86	112 µM	–	–	less than 40%	< 100 µg/mL	COc1ccc(-c2c(CN3CCOCC3)cn3c2-c2cc(OC)c(OC)cc2CC3)cc1 [Compound 8b, 8,9-Dimethoxy-1-(4-methoxyphenyl)-2-(morpholin-4-ylmethyl)-5,6-dihydropyrrolo[2,1-a]isoquinoline]	56.4 µM	66 µM	37.7 µM	65.4 µM
–	–	–	–	–	–	–	–	–	210 to 215 °C	–	–	COc1cc2c(cc1OC)-c1c(-c3ccc(Cl)cc3)c(C(=O)O)cn1CC2 [Compound 5a, 1-(4-Chlorophenyl)-8,9-dimethoxy-5,6-dihydropyrrolo[2,1-a]isoquinoline-2-carboxylic acid]	> 100 µM	> 100 µM	> 100 µM	> 100 µM
–	–	–	–	–	–	–	–	–	–	–	–	COc1cccc2c1C(=O)c1c(O)c3c(c(O)c1C2=O)C[C@@](O)(C(=O)CO)C[C@@H]3O[C@H]1C[C@H](N)[C@H](O)[C@H](C)O1 [Doxorubicin, reference compound]	0.14 µM	0.38 µM	0.29 µM	0.89 µM
–	–	–	1.8 µM	< 500 nM and 390 nM	> 100 µM	5.09	1.06 µM	more than two orders of magnitude	–	–	–	CCOc1ccc(-c2c(C#N)cn3c2-c2cc(OCC)c(OCC)cc2CC3)cc1OCC [Compound 6c]	> 100 µM	> 100 µM	> 100 µM	> 100 µM
–	–	–	1.95 µM	4480 nM	6.42 µM	3.39	19.8 µM	–	–	–	–	COc1ccc(-c2c(C=O)cn3c2-c2cc(OC)c(OC)cc2CC3)cc1 [Compound 4b]	> 100 µM	> 100 µM	95.2 µM	> 100 µM
–	–	–	–	–	–	–	–	–	–	–	–	CCOc1ccc(-c2c(C#N)c(C)n3c2-c2cc(OCC)c(OCC)cc2CC3)cc1OCC [Compound 6d, 1-(3,4-Diethoxyphenyl)-8,9-diethoxy-3-methyl-5,6-dihydropyrrolo[2,1-a]isoquinoline-2-carbonitrile]	> 100 µM	> 100 µM	> 100 µM	> 100 µM
